In patent publication US20250367170A1, “TOPICAL ANGIOTENSIN II RECEPTOR BLOCKERS (ARBS) FOR TREATING EYE CONDITIONS” (The Cleveland Clinic Foundation, priority 2022, published 2025):

Legend:
[1] = tested on: rabbit corneas after 1N NaOH alkali burn injury; assay: Slit lamp stromal opacity area and intensity (ImageJ) one month after alkali burn; format: in vivo, New Zealand White rabbits; settings: topical 0.2 mg/ml losartan and/or 1% prednisolone acetate six times per day
Method: All animal treatments and care were approved by the Institutional Animal Care and Use Committee (IACUC) at the Cleveland Clinic Foundation (Cleveland, OH, USA) and the Animal Care and Use Review Office of the Department of the Army (Fort Detrick, MD). All rabbits were treated in accordance with the tenets of the ARVO Statement for the Use of Animals in Ophthalmic and Vision Research. Sixteen 10- to 15-week-old female New Zealand White rabbits weighing 2.5 to 3.0 kg each were included in this example.
Alkali injuries were produced in one eye of rabbits with previously published methods^10 using 1N sodium hydroxide (Sigma, St. Louis, MO) in balanced salt solution (BSS, 0.64% sodium chloride, 0.075% potassium chloride, 0.048% calcium chloride dihydrate, 0.03% magnesium chloride hexahydrate, 0.39% sodium acetate trihydrate, 0.17% sodium citrate dihydrate, pH 7.5, Alcon, Ft. Worth, TX) and a 5 mm diameter circular Whatman No. 1 filter paper (Cat #1001-6508, Fisher Scientific) wetted with 100 μl of 1N NaOH solution. Following the alkali burn injury, the cornea was irrigated profusely with BSS. Each injured cornea also received one drop of ciprofloxacin (Alcon, Ft. Worth, TX, USA) ten minutes after surgery and four times a day for one week and at least 15 minutes apart from the study medications.
Worth TX), at least 5 minutes apart, or 4) 50 μl of BSS.
At one month after sodium hydroxide exposure and treatments, with the rabbits under ketamine-xylazine general anesthesia, the eyes were dilated with two drops of 1% tropicamide (Akom Co., Lake Forest, IL) for thirty minutes. The study eye in each rabbit had slit lamp photographs with standardized illumination level and angle of illumination at 20× magnification with a Topcon (Oakland, NJ, USA) SL-D7 slit lamp photography system. For each study eye, the total area of opacity was determined by outlining the opacity with the freehand selection tool using ImageJ 1.53a analysis software calibrated to mm^2. The “raw internal density” in pixels for the opacified area in each cornea was also determined using ImageJ.

[2] = tested on: α-smooth muscle actin (SMA) marker for myofibroblasts; assay: IHC for SMA, area of SMA-positive posterior fibrotic stroma (QuPath) after Descemetorhexis; format: in vivo, New Zealand White rabbits
Method: At one month after surgery and treatment, an intravenous injection of 100 mg/kg Beuthanasia (Shering-Plough, Kenilworth, NJ) was given for euthanasia with the animals under general anaesthesia. Sharp Westcott scissors (Fairfield, CT, USA) and 0.12 forceps (Storz, St. Louis, MO) were used to remove the comeo-scleral rims of the sham unwounded and DMR eyes without touching the cornea. Each cornea was set in the center of a 24×24×5 mm mold (Fisher Scientific, Pittsburgh, PA, USA) and the mold was filled in liquid OCT compound (Sakura Finetek, Torrance, CA, USA). The molds and cornea-scleral rims were quick frozen on dry ice and stored at −80° C. until sections were cut.
Each OCT block was bisected in the exact center of the cornea, and 8 μm thick transverse sections were cut from the central cornea within the previous DMR injury or unwounded sham surgery corneas with a cryostat (HM 505M; Micron GmbH, Walldorf, Germany) and three sections per slide were placed on 25 mm×75 mm×1 mm Superfrost Plus microscope slides (Fisher Scientific, Pittsburgh, PA, USA). Slides were maintained at −20° C. until immunohistochemistry.
Duplex immunohistochemistry (IHC) was performed after masking of slides by a researcher not involved in the analysis using previously described methods (de Oliveira et al., 2021) using primary antibodies (Table 2) confirmed by western blotting and IHC to recognize rabbit antigens or isotypic control antibodies (ThermoFisher Scientific, Waltham, MA), and secondary fluorescent tagged antibodies (Table 3).
The area of the SMA-positive posterior fibrotic stroma was quantitated with the original groups masked to the analyzer by standardized photography with a lOx objective on a Leica DM6B upright microscope equipped with an automated stage and Leica 7000 T camera using the LAS X software (Leica Microsystems, GmbH, Wetzlar, Germany). The area of the SMA-positive posterior stromal fibrosis was measured by manually outlining the area on the cornea sections with calibrated QuPath v0.2.3 software using previously described methods (Bankhead et al., 2017). Statistical analysis for the area of SMA-positive fibrosis was performed using the Kruskal-Wallis test followed by post-hoc Dunn's-Bonferroni test and p<0.05 was considered statistically significant.

[3] = tested on: rabbit corneas after -9D PRK; assay: Slit lamp central opacity (ImageJ) one month after -9D PRK; format: in vivo, New Zealand white rabbits; settings: topical 0.2 mg/ml six times a day, vehicle 93±6
Method: Animal procedures were approved by the Institutional Animal Care and Use Committee at the Cleveland Clinic Foundation and animals were treated in accordance with the tenets of the Association for Research in Vision and Ophthalmology Statement for the Use of Animals in Ophthalmic and Vision Research. Twelve female 12- to 15-week-old New Zealand white rabbits weighing 2.5 to 3 kg each were included. Starting 24 hours prior to surgery and continuing 5 days after PRK, all rabbits received 60 mL children's liquid acetaminophen (Johnson & Johnson, Ft. Washington, PA, USA) per 1 L of drinking water. One eye of each rabbit was randomly selected to have −9.0 D (on myopia scale) PRK and received 2 drops of topical 1% proparacaine hydrochloride (Alcon, Fort Worth, TX, USA) prior to the surgery. […]
At 1 month after PRK and treatment, each rabbit was placed under ketamine-xylazine general anesthesia and the eyes were dilated with two drops of 1% tropicamide (Akorn Co., Lake Forest, IL, USA) for 30 minutes. […] For each study cornea, the mean opacity in pixels in the central 3.5 mm of the PRK ablated zone was determined by using ImageJ 1.53a analysis software (National Institutes of Health, Bethesda, MD, USA).

Compound: CCCCc1nc(Cl)c(CO)n1Cc1ccc(-c2ccccc2-c2nn[nH]n2)cc1 [losartan]
- total corneal opacity area measured with ImageJ, vs BSS vehicle [1]: decreased
- total opacity in pixels in the opacified area of cornea, vs vehicle BSS group [1]: significantly lower
- posterior fibrosis compared with topical and oral vehicle ([2]; Descemetorhexis, oral 5 mg/kg three times per day, one month): similar
- mean SMA-positive posterior fibrotic area vs vehicles or topical and oral losartan ([2]; Descemetorhexis, oral losartan alone, one month): not statistically significantly different
- mean SMA-positive posterior fibrotic area compared to the other Descemetorhexis groups ([2]; Descemetorhexis, topical 0.1 mg/ml six times a day, one month): significantly lower
- SMA-positive fibrotic zone in the posterior cornea ([2]; Descemetorhexis, topical 0.1 mg/ml six times per day, one month): marked decrease
- SMA-positive fibrosis in the posterior cornea ([2]; Descemetorhexis, topical six times per day and oral three times per day, one month): decrease
- SMA-positive posterior corneal fibrosis in uninjured corneas ([2]; oral three times a day): did not develop
- SMA-positive posterior corneal fibrosis in uninjured corneas ([2]; topical six times a day): did not develop
- mean pixels of opacity within the central 3.5 mm diameter area (mean±SEM) [3]: 77±3 pixels
